The values below come from PMC12298629, “New Derivatives of Caracasine Acid with Anti-Leukemic Activity and Limited Effectiveness in Spheroid Cultures” (Pharmaceuticals, 2025).

One assay relates to BJ LD. The experiment in a line: Cytotoxic MTS assay, BJ LD fibroblasts (doxorubicin-resistant). The class given is cell-based. As to conditions: Fibroblast, doxorubicin-resistant human fibroblasts, 72 h, median of five assays. The source says:
(§1) The cancer cell lines used in the cytotoxic assays were acquired from the American Tissue Culture Collection (ATCC) (Manassas, VA, USA) and maintained as described previously. The MRC-5 and BJ human fibroblasts were used as non-tumoral control cells. The (MRC-5 LD and BJ LD) are also human fibroblast cell lines resistant to doxorubicin. […] The Raji and Ramos cell lines correspond to B-cell leukemia. Other cells, such as U2OS, represent a child osteosarcoma, while HCT116 is a colorectal tumor cell line. (HCT116p53^−/−, Horizon Discovery Ltd., Cambridge, UK) is a similar cell line with its p53 gene knocked down, serving as a model of human cancer frequently associated with a poor prognosis. The cells were maintained in Nunc/corning 80 cm^2 plastic tissue culture flasks and cultured in a cell culture medium according to ATCC or Horizon recommendations (McCoy, DMEM/RPMI 1640 with 5 g/L glucose, 2 mM glutamine, 100 U/mL penicillin, […] streptomycin, 10% fetal calf serum, and NaHCO3). The compounds were freshly dissolved in DMSO. The final concentration of DMSO was 0.01% in the cell culture.
(§2) The in vitro cytotoxicity of compounds (1–7) was assessed using the standard 3-(4,5-dimethyl-thiazol-2yl)-5-(3-carboxymethoxyphenyl)-2-(sulfophenyl)-2H-tetrazolium (MTS). The assay was performed at the Institute of Molecular and Translational Medicine using a robotic platform (High-ResBiosolutions, Beverly, MA, USA). Cell suspensions were prepared and diluted according to the specific cell type and the expected target cell density (25,000–35,000 cells/mL, based on cell growth characteristics). An automatic pipettor (30 μL) was used to add cells into 384-well microtiter plates. All tested compounds were dissolved in 100% DMSO, and four-fold dilutions of the intended test concentrations were added in 0.15 μL aliquots at time zero to the microtiter plate wells by the echo acoustic non-contact liquid handler Echo550 (Labcyte, San Jose, CA, USA). The assays were accomplished in technical duplicates and at least three biological replicates. The cells were incubated with the tested compound for 72 h at 37 °C in a 5% CO2 atmosphere with 100% humidity. At the end of the incubation period, cells were assayed using the MTS test. Aliquots (5 μL) of the MTS stock solution were pipetted into each well and incubated for 1–4 h. After this incubation period, the optical density (OD) was measured at 490 nm using an Envision reader (PerkinElmer, Waltham, MA, USA). Tumor cell survival (TCS) was calculated using the following equation: TCS = (OD drug-exposed well/mean OD control wells) × 100%. The IC50 value, representing the concentration of the compound lethal to 50% of the tumor cells, was calculated from the corresponding dose-response curves using Dotmatics software (Updated version 2022, London, UK). After three days of incubation on the cancer cell lines and normal fibroblasts, the […] (IC50) were obtained. Five assays were performed for each cell line. The standard error of the assays was lower than 10%, as assessed by the triplicate assays.
In general terms: Formazan colour is commonly taken as a measure of viable cells.

The test system of another assay is MRC-5. Briefly: Cytotoxic MTS assay, MRC-5 fibroblasts. Particulars: MRC5, human fibroblasts, 72 h, median of five assays. The class given is cell-based.
Excerpt: as §1, §2

For another assay, the system named is K562. Briefly: Cytotoxic MTS assay, K562. Type of assay: cell-based. As to conditions: K562, human leukemia cell line, 72 h, median of five assays.
Excerpt: as §1, §2

The next assay concerns RAJI. The experiment in a line: Cytotoxic MTS assay, Raji. The class given is cell-based. As to conditions: Raji, human leukemia cell line, 72 h, median of five assays.
Excerpt: as §1, §2

The subject of a further assay is RAMOS. The experiment in a line: Cytotoxic MTS assay, Ramos. Type of assay: cell-based. Particulars: Ramos, human leukemia cell line, 72 h, median of five assays.
Excerpt: as §1, §2

The subject of a further assay is HCT116 par. Briefly: Cytotoxic MTS assay, HCT116 parental 2D. Particulars: HCT-116, human tumors 2D, 72 h, median of five assays. Type of assay: cell-based.
Excerpt: as §1, §2

Another assay deals with U2OS. Briefly: Cytotoxic MTS assay, U2OS 2D. The class given is cell-based. Particulars: U2OS, human tumors 2D, 72 h, median of five assays.
Excerpt: as §1, §2

A further assay deals with A549 spheroids. The experiment in a line: Spheroid viability assay (CellTiter-Glo 3D), A549 spheroids. Type of assay: cell-based. As to conditions: A549, human tumors spheroids, 72 h, 100 pM to 50 μM. The method, then:
Spheroid culture aims to analyze the drug’s effect on complex structures resembling solid tumors. The spheroids were prepared using the specific nonadherent plates for spheroid formation (Nunc Sphera, Thermo Fisher, Waltham, MA, USA) according to the simple protocol outlined by the manufacturer. The cell lines HCT116 parental, HCT116KOTp53, A549, and U2OS were cultured at a density of 2500 cells per well using medium containing 10% fetal calf serum and antibiotics: McCoy’s 5A medium for HCT116, F-12K (Kaighn’s Modified) for A549, and Dulbecco’s Modified Eagle Medium (DMEM). The cells were grown in culture for 48 h as recommended by the manufacturer and as described by Das et al. and Muñoz-Garcia et al..
The cell viability of the treated spheroids was assessed using the kit CellTiter-Glo 3D (Promega Corporation, Madison, WI, USA). The kit is designed to measure ATP as an indicator of viability, generating a luminescent readout that is more sensitive than colorimetric or fluorescence-based methods. The spheroids were cultivated with compounds at concentrations ranging from 100 pM to 50 μM in triplicate for 72 h, and the luminescence was measured using the Enspire apparatus (PerkinElmer). A standard curve was performed for each analysis as recommended by the manufacturer.
(In ATP-based viability assays light output follows the ATP content of the culture.)

A further assay has as its system caspase 9. The experiment in a line: Caspase 9 activity in lysed HCT116 cells from 2D and spheroids. Particulars: 12 h; for Caspase 9 activity, 2D culture: HCT116 parental, 25 µM; for Caspase 9 activity, spheroid culture: HCT116 parental spheroids, 25 µM (cisplatin 15 μM). Type of assay: cell-based, human. The method, then:
(§3) The assay was designed to evaluate the impact of various compounds on caspase activity using a standardized quantity of cell protein lysates after 12 h of incubation. The parental line HCT116 served as the basis for these experiments. Three distinct caspases were examined employing the fluorescence assay kits from Calbiochem (San Diego, CA, USA), specifically a fluorometric caspase-8 assay kit and a fluorimetric caspase-3 assay kit. Additionally, the fluorometric kit from Abcam was utilized to assess caspase-9 activity. Due to the variations in protocols for each caspase, separate plates were prepared for each assay, encompassing both two-dimensional (2D) cell cultures and spheroids. The compound concentrations were established at 25 µM, and assays were conducted in quintuplicate following a 12-h incubation period. The cells were harvested from the plates using the standard trypsin-EDTA solution (Merck Sigma Aldrich, Saint Louis, MO, USA), washed, and counted before lysis, as described in each kit. Cell processing adhered to the guidelines provided by the respective companies, and protein concentration was calculated and standardized using the standard BCA assay. Fluorescent readings were captured using the Enspire apparatus (Perkin-Elmer, MA, USA). Positive controls utilized included staurosporine at a concentration of 5 μM and cisplatin at 15 μM. The kits provided their own standards; however, to normalize all the readings between cultures, types, and treatments, the results were expressed as a percentage relative to the positive control, staurosporine, in 2D culture. […] A total of three separate assays were conducted for each caspase.

The test system of the next assay is caspase 3. The experiment in a line: Caspase 3 activity in lysed HCT116 cells from 2D and spheroids. The class given is cell-based, human. As to conditions: 12 h; for Caspase 3 activity, 2D culture: HCT116 parental, 25 µM; for Caspase 3 activity, spheroid culture: HCT116 parental spheroids, 25 µM (cisplatin 15 μM). The method, then:
as §3

The IC50 is the midpoint of a concentration-inhibition curve. With `C=C(C)C1CCC23CC(CCC2C1(C)CCC(=O)O)C(C)C3=O` (single isomer, unassigned; ent-3) [Compound 5, Ent-3,4-Seco-15-Oxo-Kaur-4(19)-en-3-Oic Acid], the IC50 is above 50 µM in the assay on BJ LD; above 50 µM in the assay with MRC-5; above 50 µM in the assay on K562; above 50000 nM in the assay on RAJI; above 50000 nM in the assay on RAMOS; above 50000 nM in the assay on HCT116 par. Moreover, the concentration for half-maximal inhibition (IC50) in the assay on U2OS and in the assay with A549 spheroids was above 50 µM throughout. In addition, the “Caspase 9 activity, 2D culture” value with caspase 9 is “did not induce caspase activity”. The “Caspase 3 activity, 2D culture” value in the assay on caspase 3 is listed as “did not induce caspase activity”.

For the molecule `C=C1C(=O)C23CCC(C(=C)C)C(C)(CCC(=O)OC)C2CCC1C3` (stereo not drawn) [Compound 2, Caracasine], the IC50 in the assay with BJ LD turned out to be 7.42 µM; with MRC-5, 6.84 µM; in the assay with K562 it was 3.29 µM; with RAJI, 1450 nM; in the assay with RAMOS it was 960 nM; in the assay on HCT116 par, 2020 nM. Further, the IC50 with U2OS was 3.19 µM; in the assay with A549 spheroids, above 50 µM. Moreover, in the assay with caspase 9, the “Caspase 9 activity, spheroid culture” value is recorded as “absence of caspase activity”. In addition, in the assay with caspase 3, the “Caspase 3 activity, spheroid culture” value was “absence of caspase activity”. Also, the “Caspase 3 activity, 2D culture” value in the assay on caspase 3 was “significant changes”.

In the case of `C=C1C(=O)C23CCC(C(=C)C)C(C)(CCC(=O)OC(C)=O)C2CCC1C3` (stereo not drawn) [Compound 7, Caracasine-Acetic Anhydride], the IC50 in the assay with BJ LD came to 7.63 µM; in the assay with MRC-5, 6.45 µM; with K562, 4.6 µM; with RAJI, 2210 nM; in the assay on RAMOS, 960 nM; with HCT116 par it was 2120 nM. Moreover, the IC50 in the assay with U2OS was 2.21 µM; in the assay with A549 spheroids it was above 50 µM. Moreover, the “Caspase 9 activity, spheroid culture” value in the assay with caspase 9 is “absence of caspase activity”. In addition, the “Caspase 3 activity, spheroid culture” value in the assay with caspase 3 is “absence of caspase activity”. In addition, in the assay on caspase 3, the “Caspase 3 activity, 2D culture” value is “significant changes”.

Take `C=C(C)C1CCC23CC(CCC2C1(C)CCC(=O)OC(C)=O)C(C)C3=O` (single isomer, unassigned; ent-3) [Compound 6, Ent-3,4-Seco-15-Oxo-Kaur-4(19)-en-Acetic Anhydride]: the IC50 in the assay with BJ LD was above 50 µM; with MRC-5, above 50 µM; with K562, above 50 µM; with RAJI, above 50000 nM; with RAMOS, above 50000 nM; in the assay with HCT116 par, above 50000 nM. Also, the IC50 with U2OS and in the assay on A549 spheroids was above 50 µM in each case. Also, the “Caspase 9 activity, 2D culture” value with caspase 9 is given as “did not induce caspase activity”. Also, the “Caspase 3 activity, 2D culture” value in the assay on caspase 3 is on record as “did not induce caspase activity”.
